Each structure is given as a SMILES string.

The data set in a line: Human HepG2 cell viability assay in 384 well format. Format: toxicity, cell-based. More on the design: dose 125 nL, time 70.5 hour; concentration not given beside the values. Conditions: HepG2 cells, read-out: Inhibition.
On to `O=C1CN(C(=O)c2ccc(Cl)cc2)CC(O)CN1Cc1cccs1` (configuration not stated), for which the cytotoxicity at 70.5 h is -5.51%.

Take `Cc1noc(C)c1CN1CC[C@H]2O[C@@H](C(=O)N3CCCC3)CC[C@H]21`: the cytotoxicity at 70.5 h turned out to be 6.38%.

As to `O=C(N1CCCO1)[C@@]12CCO[C@@H]1CCN(Cc1ccsc1)C2`, the cytotoxicity at 70.5 h was -6.2%. For the molecule `Cc1ncc(S(=O)(=O)Nc2ccnn2C(C)C)[nH]1`, the cytotoxicity at 70.5 h is 3.96%. For `Cc1cccc(C2CCCN(C(=O)c3ccncc3)C2)n1` (configuration not stated), the cytotoxicity at 70.5 h was -7.3%. With `Cc1c[nH]nc1C1CCN(S(=O)(=O)N(C)C)CC1` the figure was 0.689%. Turning to `CC(C)(C)c1nc(CN2CCCC2Cn2cccn2)no1` (configuration not stated), the cytotoxicity at 70.5 h was found to be 12.2%. The figure for `NC(=O)C1CCN(c2nc3nccc(-c4ccccc4)c3c(=O)[nH]2)CC1` is -13.2%; for `O=c1cc(N2CCCCC2)cnn1CCCn1cccn1` it is 4.12%. The figure for `O=C(CO[C@@H]1CC[C@H]2[C@H]1OCCN2CC1CCOCC1)N1CCCC1` is -0.662%; for `CC(=O)N1CCCC(C(=O)N2Cc3nc(C)n(C)c(=O)c3C2)C1` (configuration not stated) it is -3.08%; for `COc1cc(CNCC(O)c2ccc(C)cc2)cc2c1OCO2` (configuration not stated) it is -2.01%. With `O=C(Cn1cncn1)NCC1CCN(Cc2ccccc2Cl)CC1` the figure was 2.75%.

Regarding `Cc1nc(-c2ccccc2)n(CC(=O)NC2CCCCC2)n1`, the cytotoxicity at 70.5 h was -14.1%. The figure for `Cc1nc(CCC(N)=O)cc(C2CCCN2S(C)(=O)=O)n1` (configuration not stated) is 0.687%. Take `CC(C)NC(=O)Nc1ccc(CNCc2cccc(C#N)c2)cc1`: the cytotoxicity at 70.5 h is -3.33%.

`CC(=O)N1CCC2(CCCN(Cc3ccc(Cl)c(C(F)(F)F)c3)C2)C1` (configuration not stated): the cytotoxicity at 70.5 h was -5.25%. The figure for `Cc1c(Br)cccc1C(=O)NCCC1CCCNC1` (configuration not stated) is 12%; for `N#CCCN(CC1CCOC1)Cn1ccc(-c2ccccc2)n1` (configuration not stated) it is -0.616%. As for `O=C(CCCc1ccccn1)N1CCC(n2cccc2)CC1`, the cytotoxicity at 70.5 h was -1.32%.

Regarding `Cc1nc(Cn2c3c(ccc2=O)CC(N)CC3)cs1` (configuration not stated), the cytotoxicity at 70.5 h was 4.04%. With `Cc1cccc(=O)n1CCC(=O)N1CC[C@](C)(O)[C@H](C)C1` the figure was -9.5%; with `CC(=O)Nc1ncc(S(=O)(=O)N2CCN(C3CCCCC3)CC2)s1`, -5.13%. With `COc1c(F)cc(F)cc1-c1nc2c([nH]1)CCNC2`, the cytotoxicity at 70.5 h was 14.9%. Regarding `CC(C)Nc1ncccc1C(=O)NC1CC(=O)N(CC(F)(F)F)C1` (configuration not stated), the cytotoxicity at 70.5 h is -2.71%. For `O=C([C@H]1CC[C@@H]2[C@@H](CCN2Cc2ccsc2)O1)N1CCOCC1`, the cytotoxicity at 70.5 h is -6.53%. As for `O=C(c1cc(COc2ccc3c(c2)OCO3)[nH]n1)N1CC=CC1CO` (configuration not stated), the cytotoxicity at 70.5 h was -8.31%. With `O=S(=O)(Nc1cnn(C2CCOCC2)c1)c1ccc(Br)cc1`, the cytotoxicity at 70.5 h is -5.21%. With `CC(=O)NCC(=O)N1Cc2cc(C#N)ccc2C1c1cnco1` (configuration not stated) the figure was 25.2%. The figure for `CCN1CC2(CC1=O)CN(C(=O)NC(C)C)CCN(S(C)(=O)=O)C2` (configuration not stated) is -2.48%. Regarding `O=C(c1ccnc(C2CCNCC2)c1)N1CCCC(CO)C1` (configuration not stated), the cytotoxicity at 70.5 h was -2.32%.

With `O=C(C(CNCc1ccccn1)c1ccccc1)N1CCOCC1` (configuration not stated), the cytotoxicity at 70.5 h came to 0.375%. The figure for `CC(NCCCN1CCCC1=O)c1cc(Br)ccc1F` (configuration not stated) is -5.24%; for `Cc1nc(CN2CCCc3cc(OC(F)(F)F)ccc32)oc1C` it is 4.79%; for `CO[C@@H]1CCN(Cc2nccs2)C[C@@H]1Cc1ccccc1` it is -11.2%. Regarding `O=C1CCCN1Cc1nc(-c2ccsc2)no1`, the cytotoxicity at 70.5 h was determined as 19.8%.

On to `Cc1ccc(NCCNC(=O)c2cc(CC(C)C)n[nH]2)nn1`, for which the cytotoxicity at 70.5 h was 4.32%. The figure for `O=C(O)c1cc(S(=O)(=O)Nc2cc(Cl)ccc2F)cc2c1OCCO2` is 23%. Turning to `Cc1oc2c(c1C(=O)N1C[C@H](O)[C@]3(CCCO3)C1)CCCC2`, the cytotoxicity at 70.5 h is -3.22%.

On to `C[C@@H]1CN(C(=O)c2c[nH]c(=O)c(Cl)c2)CC[C@@]1(O)C1CCOCC1`, for which the cytotoxicity at 70.5 h is -1.04%. Consider `COc1ccc2[nH]c(C[C@@H]3C[C@@H](C(C)C)[C@H](CN(C)C)C=C3C)nc2c1`, for which the cytotoxicity at 70.5 h was -3.19%. For the molecule `Cc1cccc(CC(=O)Nc2cccnc2N2CCC(CO)CC2)c1`, the cytotoxicity at 70.5 h was -2.43%. With `CC(=O)N[C@@H]1CN(c2nc(CO)cs2)C[C@H]1c1ccc(C)o1`, the cytotoxicity at 70.5 h is -12.8%. The figure for `CCc1ccc(CCC(=O)N2CCOCC2c2ncon2)cc1` (configuration not stated) is -9.85%; for `Cc1noc(C)c1CN1CCC2(CC1)NC(=O)CC2c1cnn(C)c1` (configuration not stated) it is -8.52%. On to `CC(C)c1n[nH]c(C2CN(Cc3nnc(C4CC4)o3)CCO2)n1` (configuration not stated), for which the cytotoxicity at 70.5 h was 24.8%. `CC(NC(=O)COc1nc(C(C)(C)C)no1)c1ccco1` (configuration not stated): the cytotoxicity at 70.5 h was -6.24%. With `Cc1cccc(NC2CCc3c2[nH]c(=O)n(C2CCCCC2)c3=O)c1C` (configuration not stated) the figure was -19.3%; with `Cc1noc(C)c1CN1C[C@H](OCC2CC2)[C@H]2COC[C@H]21`, -7.4%. With `O=C(CN1CCCC(c2ncc[nH]2)C1)NCC(F)(F)F` (configuration not stated) the figure was 18.7%; with `CC(C)CCc1nc(CN2CCOC(Cn3cncn3)C2)cs1` (configuration not stated), -2.95%.

For the molecule `Cc1cc(C(=O)N2CCc3nc(N4CCCC4)nc(C)c3CC2)c(C)o1`, the cytotoxicity at 70.5 h is -7.18%. With `Cc1nc(-c2cccnc2)ncc1C(=O)N1CCC(c2ncc[nH]2)CC1` the figure was -3.5%; with `CCC(=O)N1CCN(C(=O)Nc2ccc(Cl)cc2)[C@H]2CS(=O)(=O)C[C@H]21`, -14.3%; with `CCn1c(C)nnc1SCCNC(=O)CC1CCc2ccccc21` (configuration not stated), -18.5%.

Turning to `Cc1cccc(N2CC3(CCN(S(=O)(=O)c4ccccc4)C3)CC2=O)c1` (configuration not stated), the cytotoxicity at 70.5 h is -6.5%.

For `CC(=O)N(C)[C@H]1CC[C@]2(CC1)CNC(=O)c1cc(C)ccc1O2`, the cytotoxicity at 70.5 h is -11.3%.

`Cc1nccn1CC1CCCN1S(=O)(=O)Cc1ccccc1F` (configuration not stated): the cytotoxicity at 70.5 h was -7.26%. As for `Cc1ccccc1CN1CCC(CNc2ncnc3c2CCNCC3)C1` (configuration not stated), the cytotoxicity at 70.5 h was 1.87%. The figure for `CC(NC(=O)NCc1c(F)cccc1Cl)(C(=O)O)c1ccco1` (configuration not stated) is -8.24%; for `Cc1nccc(N2CCCC(C)(C(=O)NC3CCCC3)C2)n1` (configuration not stated) it is -15.1%. With `COCC(=O)NCc1ccc(-c2ccccc2C(=O)O)cn1` the figure was -3.58%. With `CN1CCCNC(=O)C12CCN(C(=O)c1ccc3[nH]cnc3c1)CC2`, the cytotoxicity at 70.5 h is -3.14%. As for `Cc1ccc(CN2C[C@@H]3COC[C@@H](CC(=O)N4CCOCC4)[C@@H]3C2)s1`, the cytotoxicity at 70.5 h was -11%. The figure for `CCCc1noc(CCC(=O)N2CCCC2c2ccsc2)n1` (configuration not stated) is -16.1%. Regarding `Cc1ccn(CC(=O)N2CC[C@@H](c3ccc4ccccc4c3)[C@H](O)C2)n1`, the cytotoxicity at 70.5 h is -10.1%. With `O=C(c1ccccc1O)N1CCn2c(nnc2C(F)(F)F)C1`, the cytotoxicity at 70.5 h is -1.13%.

As for `CCCN1CCCC2(CCN(C(=O)CCCn3cncn3)C2)C1=O` (configuration not stated), the cytotoxicity at 70.5 h is -4.88%. With `Cc1ccc(N2CCCC(NCc3nnc(-c4ccco4)o3)C2)nn1` (configuration not stated) the figure was -13.2%; with `COc1ccccc1COCC(O)CN(C)c1ccc(C)cc1C` (configuration not stated), 15.1%; with `Cn1ccnc1CN1CCC2(CC1)CCN(Cc1ccoc1)C2`, -2.31%. The figure for `C[C@@H]1CN(C(=O)CCCN2CCOCC2)C[C@@]1(O)C1CC1` is -5.23%. On to `Cc1cc(-c2cnn(CCNC(=O)c3cccnc3)c2C2CC2)on1`, for which the cytotoxicity at 70.5 h is -16.3%. With `CN1CCN(Cc2cn3c(n2)CN(CC2CC2)CC3)CC1`, the cytotoxicity at 70.5 h was -2.8%.

For `CCN1CCN(C(=O)Cn2ncc3c2c(C)nn3C(C)C)CC1`, the cytotoxicity at 70.5 h was -4.28%. Regarding `CCC[C@H]1CN(C2CCOCC2)C[C@@H]1NC(=O)CCCn1ccnc1`, the cytotoxicity at 70.5 h was -2.79%. Consider `CN(C)CCOCC1CN(Cc2ccsc2)Cc2ccnn2C1` (configuration not stated), for which the cytotoxicity at 70.5 h was determined as 3.88%. With `OCC1(O)CCCN(Cc2ccccc2OCCc2ccccc2)CC1` (configuration not stated) the figure was -5.14%; with `Cc1cc(N2CCN(Cc3ccc(C)o3)CC2)cc(C)n1`, -9.4%. On to `COc1cc(C)nc(N2CCN(C(=O)CCc3cccs3)CC2)n1`, for which the cytotoxicity at 70.5 h was -6.26%.

`Cc1[nH]ccc1C(=O)NCc1ncoc1C`: the cytotoxicity at 70.5 h was -2.23%. For `Cc1ccc(CN(CCCn2ccnc2)Cc2cccs2)s1`, the cytotoxicity at 70.5 h came out at 18.6%. The figure for `Cn1ncc(NCc2cccc(COC(C)(C)C)c2)c(Cl)c1=O` is 7.28%. As for `O=C(NCCC1Cc2ccccc2C1)N1CCCC(O)C1` (configuration not stated), the cytotoxicity at 70.5 h came to 26.4%. With `COc1cccc2c1OCC(C(=O)N(Cc1ccncc1)CC(C)C)C2` (configuration not stated) the figure was 15.1%; with `CN(Cc1cc(-c2cccnc2)no1)C(=O)C1CCCN1S(C)(=O)=O` (configuration not stated), -8.25%.

Regarding `O=C(C1=CCCC1)N1C[C@H]2CCC[C@@]2(COCc2ccncc2)C1`, the cytotoxicity at 70.5 h came to 3.16%. With `COc1cc(C(=O)NS(=O)(=O)c2cccc(C#N)c2)ccc1C` the figure was -7.93%. With `CC(C)(CO)Nc1cc(-c2ccncc2)ncn1` the figure was -2.83%. With `CCS(=O)(=O)N1CCN(C(=O)c2cnc3[nH]nc(C)c3c2)CC1` the figure was -5.38%. In the case of `CCOCCCNC(=O)c1cn(C(C)(C)C)c2ncccc12`, the cytotoxicity at 70.5 h worked out at 20.9%.

For `O=C(CSc1ccncc1)N1CCC2(CC1)c1ccccc1CC2O` (configuration not stated), the cytotoxicity at 70.5 h was -5.15%. On to `Cc1cccc(C(=O)N2CC(Cc3nccc4ccn(C)c34)C2)n1`, for which the cytotoxicity at 70.5 h came out at 1.37%. With `CN1C[C@@H](c2cccc(F)c2)[C@H]2[C@H]1CCCCCN2C(=O)C1CC1` the figure was 2.38%; with `N#CC1(NC(=O)c2nccc3ccccc23)CCSCC1`, -9.79%. Regarding `COCCNc1ccc(-c2noc([C@@H]3CCCN3)n2)cn1`, the cytotoxicity at 70.5 h came to 6.15%. With `O=C(Cc1cccs1)NCC(=O)Nc1cn[nH]c1` the figure was -11.9%.

The values are drawn from ChEMBL document CHEMBL3507680, “University of Dundee, Gates Library screen for HepG2 cell viability”.
